Active and inactive are the calls of the source. The rule behind the calls is not given here.
Assays:
Assay type in all cases: cell-based
Settings in all cases: Homo sapiens
[1] = Activation of Wnt signaling pathway in HEK293 cells assessed as increase in beta-catenin-mediated Tcf/Lef transcriptional activity at 250 nM after 24 hrs by dual luciferase reporter gene assay relative to control
[2] = Activation of Wnt signaling pathway in HEK293 cells assessed as increase in beta-catenin-mediated Tcf/Lef transcriptional activity after 24 hrs by dual luciferase reporter gene
[3] = Activation of Wnt signaling pathway in HEK293 cells assessed as increase in phosphorylation at Ser9 of GSK3-beta at 250 nM after 24 hrs by Western blot analysis
[4] = Activation of Wnt signaling pathway in HEK293 cells assessed as decrease in phosphorylation at Tyr216 of GSK3-beta at 250 nM after 24 hrs by Western blot analysis
[5] = Activation of Wnt signaling pathway in HEK293 cells assessed as decrease in phosphorylation at […]/37/Thr41 of […] at 250 nM after 24 hrs by Western blot analysis

Row | Compound | fold change (FC) [1] | other results
1 | O=C1Nc2cc(Br)ccc2/C1=C1/Nc2ccccc2/C1=N\O | 2.7 | Activity [2]: Dose-dependent effect
2 | CC(=O)Nc1ccc2c(c1)/C(=C1/Nc3ccccc3/C1=N\O)C(=O)N2 | 1.89 | –
3 | O=C1Nc2ccc([N+](=O)[O-])cc2/C1=C1/Nc2ccc(Br)cc2/C1=N/O | 1.66 | –
4 | CC(C)(C)C(=O)Nc1ccc2c(c1)/C(=C1/Nc3ccccc3/C1=N\O)C(=O)N2 | 1.51 | –
5 | O=Nc1c(-c2c(O)[nH]c3ccc([N+](=O)[O-])cc23)[nH]c2ccccc12 | 4.2 | Activity [3]: Active; Activity [4]: Active; Activity [5]: Active
6 | O=C1Nc2ccccc2/C1=C1/Nc2ccccc2C1=O | 2.04 | –
7 | O=C1Nc2ccc(Cl)cc2/C1=C1/Nc2ccccc2/C1=N\O | 3.46 | –

— ChEMBL document CHEMBL1153957, “Novel small molecule activators of beta-catenin-mediated signaling pathway: structure-activity relationships of indirubins” (Bioorg Med Chem Lett, 2009)
